Results: patent publication US20220332708A1 (Cytokinetics, Inc., priority 2021, published 2022)

tested on: Bovine cardiac myofibrils; assay: Dose-dependent myofibril ATPase modulation (calcium-buffered, pyruvate kinase and lactate dehydrogenase-coupled ATPase assay at pCa25); format: biochemical; details: concentration at which ATPase activity was 1.4-fold higher than the bottom of the dose curve, mean of a minimum of two independent tests
Outline: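 Detergent-skinned bovine cardiac myofibrils (typically 0.25-1.0 mg/ml) in a pyruvate kinase/lactate dehydrogenase-coupled ATPase assay, 1 mM ATP, pH 6.80, free Ca2+ set by EGTA buffer to pCa25. ATP hydrolysis followed by A340; 4-parameter fit, AC1.4 as mean of at least two independent tests.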

Row | AC1.4 [µM] | SMILES
1 | 0.3162 | Cc1[nH]c(S(=O)(=O)N[C@@H]2COc3cc(F)c(F)cc3C2)cc1C(=O)N1CC(C)(C#N)C1 [Compound 70, (S)-4-(3-cyano-3-methylazetidine-1-carbonyl)-N-(6,7-difluorochroman-3-yl)-5-methyl-1H-pyrrole-2-sulfonamide]
2 | 0.3054 | Cc1[nH]c(S(=O)(=O)N[C@@H]2COc3ccc(Cl)cc3C2)cc1C(=O)N1CC(C)(C#N)C1 [Compound 71, (S)-N-(6-chlorochroman-3-yl)-4-(3-cyano-3-methylazetidine-1-carbonyl)-5-methyl-1H-pyrrole-2-sulfonamide]
3 | 0.4237 | Cc1[nH]c(S(=O)(=O)N[C@@H]2COc3cc(Cl)ccc3C2)cc1C(=O)N1CC(C)(C#N)C1 [Compound 72, (S)-N-(7-chlorochroman-3-yl)-4-(3-cyano-3-methylazetidine-1-carbonyl)-5-methyl-1H-pyrrole-2-sulfonamide]
4 | 0.0793 | Cc1[nH]c(S(=O)(=O)N[C@@H]2COc3cc(F)c(Cl)cc3C2)cc1C(=O)N1CC(C)(C#N)C1 [Compound 73, (S)-N-(6-chloro-7-fluorochroman-3-yl)-4-(3-cyano-3-methylazetidine-1-carbonyl)-5-methyl-1H-pyrrole-2-sulfonamide]
5 | 0.5684 | Cc1[nH]c(S(=O)(=O)N[C@@H]2COc3ccc(Cl)cc3[C@@H]2O)cc1C(=O)N1CC(C#N)C1 [Compound 74, N-((3R,4S)-6-chloro-4-hydroxychroman-3-yl)-4-(3-cyanoazetidine-1-carbonyl)-5-methyl-1H-pyrrole-2-sulfonamide]
6 | 0.5877 | Cc1[nH]c(S(=O)(=O)N[C@H]2COc3ccc(Cl)cc3[C@@H]2O)cc1C(=O)N1CC(C)(C#N)C1 [Compound 75, N-((3S,4S)-6-chloro-4-hydroxychroman-3-yl)-4-(3-cyano-3-methylazetidine-1-carbonyl)-5-methyl-1H-pyrrole-2-sulfonamide]
7 | 0.1896 | Cc1[nH]c(S(=O)(=O)N[C@@H]2COc3cc(F)c(Cl)cc3[C@H]2O)cc1C(=O)N1CC(C)(C#N)C1 [Compound 77, N-((3R,4R)-6-chloro-7-fluoro-4-hydroxychroman-3-yl)-4-(3-cyano-3-methylazetidine-1-carbonyl)-5-methyl-1H-pyrrole-2-sulfonamide]
8 | 0.1127 | Cc1[nH]c(S(=O)(=O)N[C@@H]2COc3cc(F)c(Cl)cc3[C@@H]2O)cc1C(=O)N1CC(C)(C#N)C1 [Compound 78, N-((3R,4S)-6-chloro-7-fluoro-4-hydroxychroman-3-yl)-4-(3-cyano-3-methylazetidine-1-carbonyl)-5-methyl-1H-pyrrole-2-sulfonamide]
9 | 0.0599 | Cc1[nH]c(S(=O)(=O)NC2Cc3cc(Cl)c(Cl)cc3C2)cc1C(=O)N1CC(C)(C#N)C1 [Compound 79, 4-(3-cyano-3-methylazetidine-1-carbonyl)-N-(5,6-dichloro-2,3-dihydro-1H-inden-2-yl)-5-methyl-1H-pyrrole-2-sulfonamide]
10 | 13.1993 | Cc1[nH]c(S(=O)(=O)N[C@H]2COc3cc(F)c(Cl)cc3C2)cc1C(=O)N1CC(C)(C#N)C1 [Compound 80, (R)-N-(6-chloro-7-fluorochroman-3-yl)-4-(3-cyano-3-methylazetidine-1-carbonyl)-5-methyl-1H-pyrrole-2-sulfonamide]
11 | 1.194 | Cc1[nH]c(S(=O)(=O)NC23COc4cc(F)c(Cl)cc4C2C3)cc1C(=O)N1CC(C#N)C1 (centres unmarked) [Compound 81, N-(6-chloro-5-fluoro-1,7b-dihydrocyclopropa[c]chromen-1a(2H)-yl)-4-(3-cyanoazetidine-1-carbonyl)-5-methyl-1H-pyrrole-2-sulfonamide]
12 | 0.6173 | Cc1[nH]c(S(=O)(=O)N[C@@H]2Cc3cc(Cl)c(Cl)cc3[C@@]2(C)O)cc1C(=O)N1CC(C)(C#N)C1 [Compound 82, 4-(3-cyano-3-methylazetidine-1-carbonyl)-N-((1R,2R)-5,6-dichloro-1-hydroxy-1-methyl-2,3-dihydro-1H-inden-2-yl)-5-methyl-1H-pyrrole-2-sulfonamide]
13 | 1.3618 | Cc1cc(S(=O)(=O)N[C@@H]2COc3cc(F)c(Cl)cc3[C@@H]2O)cc(N2CC(C#N)C2)n1 [Compound 85, N-((3R,4S)-6-chloro-7-fluoro-4-hydroxychroman-3-yl)-2-(3-cyanoazetidin-1-yl)-6-methylpyridine-4-sulfonamide]
14 | 13.53 | Cc1cc(S(=O)(=O)N[C@@H]2COc3cc(F)c(Cl)cc3[C@@H]2O)cc(N2CC(O)C2)n1 [Compound 86, N-((3R,4S)-6-chloro-7-fluoro-4-hydroxychroman-3-yl)-2-(3-hydroxyazetidin-1-yl)-6-methylpyridine-4-sulfonamide]
15 | 3.783 | Cc1cc(S(=O)(=O)N[C@@H]2COc3cc(F)c(Cl)cc3[C@@H]2O)cc(N2CC(C)(C)C2)n1 [Compound 87, N-((3R,4S)-6-chloro-7-fluoro-4-hydroxychroman-3-yl)-2-(3,3-dimethylazetidin-1-yl)-6-methylpyridine-4-sulfonamide]
16 | 2.209 | Cc1cc(S(=O)(=O)N[C@@H]2COc3cc(F)c(Cl)cc3[C@@H]2O)cc(N2CC(OC(F)F)C2)n1 [Compound 88, N-((3R,4S)-6-chloro-7-fluoro-4-hydroxychroman-3-yl)-2-(3-(difluoromethoxy)azetidin-1-yl)-6-methylpyridine-4-sulfonamide]
17 | 0.2521 | Cc1[nH]c(S(=O)(=O)N[C@@H]2Cc3cc(F)c(Cl)cc3[C@H]2O)cc1C(=O)N1CC(C)(C#N)C1 [Compound 89]
18 | 5.312 | Cc1cc(S(=O)(=O)N[C@@H]2COc3cc(F)c(Cl)cc3[C@@H]2O)cc(N2CC(C(F)F)C2)n1 [Compound 90]
19 | 1.417 | Cc1cc(S(=O)(=O)N[C@@H]2COc3cc(F)c(Cl)cc3[C@@H]2O)cc(N2CC[C@@H](C#N)C2)n1 [Compound 91, N-((3R,4S)-6-chloro-7-fluoro-4-hydroxychroman-3-yl)-2-((R)-3-cyanopyrrolidin-1-yl)-6-methylpyridine-4-sulfonamide]
20 | 0.1626 | Cc1[nH]c(S(=O)(=O)N[C@@H]2Cc3cc(F)c(Cl)cc3C2)cc1C(=O)N1CC(C(F)(F)F)C1 [Compound 93, (R)-N-(5-chloro-6-fluoro-2,3-dihydro-1H-inden-2-yl)-5-methyl-4-(3-(trifluoromethyl)azetidine-1-carbonyl)-1H-pyrrole-2-sulfonamide]
21 | 0.6847 | Cc1[nH]c(S(=O)(=O)N[C@@H]2Cc3cc(F)c(Cl)cc3C2)cc1C(=O)N1CC(OC(F)(F)F)C1 [Compound 94, (R)-N-(5-chloro-6-fluoro-2,3-dihydro-1H-inden-2-yl)-5-methyl-4-(3-(trifluoromethoxy)azetidine-1-carbonyl)-1H-pyrrole-2-sulfonamide]
22 | 0.9577 | Cc1[nH]c(S(=O)(=O)N[C@@H]2Cc3cc(F)c(Cl)cc3C2)cc1C(=O)N1CC(C)(O)C1 [Compound 95, (R)-N-(5-chloro-6-fluoro-2,3-dihydro-1H-inden-2-yl)-4-(3-hydroxy-3-methylazetidine-1-carbonyl)-5-methyl-1H-pyrrole-2-sulfonamide]
23 | 1.218 | Cc1[nH]c(S(=O)(=O)N[C@@H]2Cc3cc(F)c(Cl)cc3C2)cc1C(=O)N1CC2(COC2)C1 [Compound 96, (R)-N-(5-chloro-6-fluoro-2,3-dihydro-1H-inden-2-yl)-5-methyl-4-(2-oxa-6-azaspiro[3.3]heptane-6-carbonyl)-1H-pyrrole-2-sulfonamide]
24 | 0.2269 | Cc1[nH]c(S(=O)(=O)N[C@@H]2Cc3cc(F)c(Cl)cc3C2)cc1C(=O)N1CC2(C1)CC(F)(F)C2 [Compound 97, (R)-N-(5-chloro-6-fluoro-2,3-dihydro-1H-inden-2-yl)-4-(6,6-difluoro-2-azaspiro[3.3]heptane-2-carbonyl)-5-methyl-1H-pyrrole-2-sulfonamide]
25 | 0.6667 | [2H]C([2H])([2H])c1[nH]c(S(=O)(=O)N[C@@H]2Cc3cc(F)c(Cl)cc3C2)cc1C(=O)N1CC(OC(F)(F)F)C1 [Compound 98, (R)-N-(5-chloro-6-fluoro-2,3-dihydro-1H-inden-2-yl)-5-(methyl-d3)-4-(3-(trifluoromethoxy)azetidine-l-carbonyl)-1H-pyrrole-2-sulfonamide]
26 | 5.571 | CNc1cc2c(cc1S(=O)(=O)N[C@H]1C[C@H](Nc3ccccc3)C1)c(=O)[nH]c(=O)n2C [Compound 100, 1-Methyl-7-(methylamino)-2,4-dioxo-N-((1r,3r)-3-(phenylamino)cyclobutyl)-1,2,3,4-tetrahydroquinazoline-6-sulfonamide]
